From publication PMC6389928, “Biomolecular Interaction, Anti-Cancer and Anti-Angiogenic Properties of Cobalt(III) Schiff Base Complexes” (Scientific Reports, 2019)

Tested on: A549 lung carcinoma cell
Assay: MTT assay on A549 cells
Settings: A549 cell, 24 h
From the text: The anti-proliferative property of the complexes 1 and 2 at different concentrations on A549 lung carcinoma cell and monkey kidney epithelial cell Vero was examined by adopting MTT assay (Fig. S7). […] The naked cobalt acetate and ligands salen and salophen were separately tested on A549 cells to understand if metal chelation is the principal basis of the anticancer activity of the complexes.
Culture: Human lung cancer cells (A549) were received from National Centre for Cell Science (NCCS) Pune, India. Vero cells were obtained from ATCC. The cells were grown at humidified atmosphere of 5% CO2 in an incubator at 37 °C (Forma, Thermo Scientific, USA) in DMEM medium (Invitrogen) containing 10% FBS (Sigma-Aldrich, St. Louis, Mo, USA), 100 μg/mL of penicillin and 100 μg/mL streptomycin were used as antibiotics (Himedia, Mumbai, India). […] The cells were seeded in 96 well plates (5000 A549 cells per well) and allowed to attach for 24 h. The cells were then incubated with different concentrations of the metal complexes 1 and 2 dissolved in 100% dimethyl sulfoxide (DMSO) (Sigma-Aldrich) and prepared to a final dilution of 0.02% of DMSO.
In the determination of IC50 value, 0.02% DMSO was used as the solvent control. After the end of incubation period (24 h), the medium was aspirated carefully and replaced with new medium. The formazan formed was dissolved in100 μL of 100% DMSO to each well. The absorbance was monitored at 570 nm using a 96 well plate reader (Bio-Rad, Hercules, California, USA). All experiments were repeated for a minimum of three times when each experiment was done in two replicates.

| Structure (SMILES) | IC50 |
| --- | --- |
| CCCCCCCCCCCC[NH2+][Co-3]123([NH2+]CCCCCCCCCCCC)[O]c4ccccc4C=[N+]1CC[N+]2=Cc1ccccc1[O]3.[O-][Cl+3]([O-])([O-])[O-] [Complex 1, trans-[Co(salen)(DA)2](ClO4)] | 80 µM |
| CCCCCCCCCCCC[NH2+][Co-3]123([NH2+]CCCCCCCCCCCC)[O]c4ccccc4C=[N+]1c1ccccc1[N+]2=Cc1ccccc1[O]3.[O-][Cl+3]([O-])([O-])[O-] [Complex 2, trans-[Co(salophen)(DA)2](ClO4)] | 65 µM |
